Patent publication US4999354A, “Imidazoquinoxaline compounds and their preparation and use” (A/S Ferrosan, priority 1987, dated 1991)

Tested on: benzodiazepine receptors
Assay: in vivo displacement of 3H-flunitrazepam from brain benzodiazepine receptors in mice
Design: species or system mice (female, NMR)
Conditions: test substance intraperitoneally 15 min before 3H-FNM i.v., forebrains taken 20 min after 3H-FNM
Procedure: The ED50 value represents the dose (mg/kg) of a test substance which causes the specific binding of flunitrazepam to benzodiazepine receptors in a living brain to be reduced to 50% of the control value.
Such an in vivo test is carried out as follows:
Results. The ED50 value is determined from dose response curves.

Compound: CC(C)n1c(=O)c2c(-c3nc(C4CC4)no3)ncn2c2ccccc21 [Compound 6, 3-(3-cyclopropyl-1,2,4-oxadiazol-5-yl)-4,5-dihydro-5-isopropyl-4-oxo-imidazo[1,5-a] quinoxaline]
- ED50 (dose that inhibits 50% of specific 3H-flunitrazepam binding to brain benzodiazepine receptors): 0.28 mg/kg
